Source: ChEMBL document CHEMBL2169821, “Design, synthesis, and evaluation of pH-dependent hydrolyzable emetine analogues as treatment for prostate cancer” (J Med Chem, 2012)
The source made the active and inactive calls. The rule behind the calls is not given here.

What was measured:
[1] = test system: Mus musculus; experiment: Toxicity in Balb/c mouse assessed as weight loss at 33 mg/kg, iv qd administered as bolus for 5 days measured within 48 hrs relative to untreated control; type: organism-based; parameters: dose 33 mg/kg, route intravenous; conditions: in vivo
[2] = test system: Mus musculus; experiment: Toxicity in Balb/c mouse assessed as weight loss at 33 mg/kg, iv qd administered as bolus for 5 days measured within 24 hrs (reference value: 1.7%); type: organism-based; parameters: dose 33 mg/kg, route intravenous; conditions: in vivo
[3] = test system: Mus musculus; experiment: Toxicity in Balb/c mouse assessed as lethargy at 33 mg/kg, iv qd administered as bolus for 5 days measured within 48 hrs; type: organism-based; parameters: dose 33 mg/kg, route intravenous; conditions: in vivo
[4] = test system: Mus musculus; experiment: Toxicity in Balb/c mouse assessed as mortality at 33 mg/kg, iv qd administered as bolus for 5 days measured up to 5 days; type: organism-based; parameters: dose 33 mg/kg, route intravenous; conditions: in vivo, 120 h
[5] = test system: Mus musculus; experiment: Toxicity in Balb/c mouse assessed as adverse effects at 100 mg/kg, iv qd administered as bolus for 5 days measured up to 3 weeks; type: organism-based; parameters: dose 100 mg/kg, route intravenous; conditions: in vivo
[6] = test system: Mus musculus; experiment: Toxicity in Balb/c mouse assessed as change in body weight at 100 mg/kg, iv qd administered as bolus for 5 days measured within 48 hrs relative to control; type: organism-based; parameters: dose 100 mg/kg, route intravenous; conditions: in vivo
[7] = test system: Mus musculus; experiment: Toxicity in Balb/c mouse assessed as adverse effects at 100 mg/kg, iv qd administered as bolus for 5 days; type: organism-based; parameters: dose 100 mg/kg, route intravenous; conditions: in vivo, 120 h
[8] = test system: PC-3; experiment: Ratio of compound IC50 to emetine IC50 for human PC3 cells measured on day 5 at pH <7 by MTT assay; type: functional
[9] = test system: PC-3; experiment: Ratio of compound IC50 to emetine IC50 for human PC3 cells measured on day 5 at pH 7.4 by MTT assay; type: functional
[10] = Chemical stability of the compound in phosphate buffer up to 5 days at pH 7.4 by HPLC analysis; type: physicochemical; conditions: for remaining at 120 h: phosphate buffer, pH 7.4, read-out: Stability
[11] = test system: PC-3; experiment: Cytotoxicity against human PC3 cells measured on day 7 by MTT assay; type: functional, cell-based
[12] = test system: PC-3; experiment: Cytotoxicity against human PC3 cells measured on day 5 by MTT assay; type: functional, cell-based
[13] = test system: LNCaP; experiment: Cytotoxicity against human LNCAP cells measured on day 7 by MTT assay; type: functional, cell-based
[14] = Prodrug activation in phosphate buffer assessed as emetine formation up to 48 hrs at pH 5.5 by HPLC analysis; conditions: pH 5.5, 48 h
[15] = test system: PC-3; experiment: Cytotoxicity against human PC3 cells measured on day 3 by MTT assay; type: functional, cell-based
[16] = Chemical stability of the compound in phosphate buffer up to 48 hrs at pH 6.5 by HPLC analysis; type: physicochemical; conditions: pH 6.5, 48 h
[17] = Chemical stability of the compound in phosphate buffer up to 48 hrs at pH 5.5 by HPLC analysis; type: physicochemical; conditions: pH 5.5, 48 h

| Structure (SMILES) | IC50 ([11]; Homo sapiens, PC-3, 168 h) | Activity [12] | IC50 ([13]; Homo sapiens, LNCaP, 168 h) | Activity [15] | Stability [16] | Stability [17] | also measured |
| --- | --- | --- | --- | --- | --- | --- | --- |
| CC[C@H]1CN2CCc3cc(OC)c(OC)cc3[C@@H]2C[C@@H]1C[C@@H]1c2cc(OC)c(OC)cc2CCN1C(=S)[S-].[Na+] | 87 nM | Active | 79 nM |  |  |  | Activity [1]: 0.67%; Activity [2]: 2%; Activity [3]: Non-toxic; Activity [4]: Non-toxic; Activity [5]: Non-toxic; Activity [6]: Non-toxic; Activity [7]: Non-toxic; Ratio IC50 [8]: 1.9; Ratio IC50 [9]: 16.5; remaining at 120 h [10]: 100% |
| CC[C@H]1CN2CCc3cc(OC)c(OC)cc3[C@@H]2C[C@@H]1C[C@@H]1c2cc(OC)c(OC)cc2CCN1C(=O)CCC(=O)O [listing 1 of 2 here] |  |  |  |  |  |  | IC50 ([11]; pc-3): 2100 nM; IC50 ([13]; lncap): 2410 nM |
| CC[C@H]1CN2CCc3cc(OC)c(OC)cc3[C@@H]2C[C@@H]1C[C@@H]1c2cc(OC)c(OC)cc2CCN1C(=O)/C=C\C(=O)O [listing 1 of 2 here] |  |  |  |  |  |  | Drug metabolism [14]: Active; Stability ([10]; buffer, pH 7.4, 120 h): 100%; IC50 ([11]; pc-3): 5040 nM; IC50 ([13]; lncap): 6780 nM |
| CC[C@H]1CN2CCc3cc(OC)c(OC)cc3[C@@H]2C[C@@H]1C[C@@H]1c2cc(OC)c(OC)cc2CCN1C(=O)/C=C\C(=O)O [listing 2 of 2 here] |  | Active |  | Active |  |  |  |
| CC[C@H]1CN2CCc3cc(OC)c(OC)cc3[C@@H]2C[C@@H]1C[C@@H]1c2cc(OC)c(OC)cc2CCN1C(=O)OCc1ccccc1 | 6070 nM | Active | 3240 nM | Active | Stable | Stable |  |
| CC[C@H]1CN2CCc3cc(OC)c(OC)cc3[C@@H]2C[C@@H]1C[C@@H]1c2cc(OC)c(OC)cc2CCN1S(=O)(=O)c1ccccc1 | > 10000 nM |  | 2260 nM |  | Stable | Stable |  |
| CC[C@H]1CN2CCc3cc(OC)c(OC)cc3[C@@H]2C[C@@H]1C[C@@H]1c2cc(OC)c(OC)cc2CCN1C(=O)CCC(=O)O [listing 2 of 2 here] | 2150 nM |  | 2450 nM |  |  |  |  |
| CC[C@H]1CN2CCc3cc(OC)c(OC)cc3[C@@H]2C[C@@H]1C[C@@H]1c2cc(OC)c(OC)cc2CCN1C(=O)NCc1ccccc1 | 7610 nM | Active | 2120 nM | Active | Stable | Stable |  |
| CC[C@H]1CN2CCc3cc(OC)c(OC)cc3[C@@H]2C[C@@H]1C[C@@H]1c2cc(OC)c(OC)cc2CCN1S(=O)(=O)c1ccc(Cl)cc1 | 4210 nM | Active | 2690 nM | Active | Stable | Stable |  |
| CC[C@H]1CN2CCc3cc(OC)c(OC)cc3[C@@H]2C[C@@H]1C[C@@H]1c2cc(OC)c(OC)cc2CCN1C(=O)/C=C\C(=O)[O-].[Na+] | 7710 nM |  | 8900 nM |  |  |  | Drug metabolism [14]: Active; remaining at 120 h [10]: 100% |
| CC[C@H]1CN2CCc3cc(OC)c(OC)cc3[C@@H]2C[C@@H]1C[C@@H]1c2cc(OC)c(OC)cc2CCN1C(=S)NCc1ccc(Cl)cc1 | 2860 nM | Active | 1590 nM | Active | Stable | Stable |  |
